From patent publication US20240252488A1 (KOREA RESEARCH INSTITUTE OF CHEMICAL TECHNOLOGY, priority 2020, published 2024)

How the values were obtained:
[1] = system: FADD−/− Jurkat cells; assay: Necroptosis inhibition assay, TNF-α-induced necroptosis (CellTiter-Glo 2.0); assay type: cell-based, human; settings: TNF-α 15 ng/mL; for Necroptosis inhibition assay (Rescue %) 1 μM: compound 1 μM; for Necroptosis inhibition assay (Rescue %) 10 μM: compound 10 μM
Summary of the method: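 Necroptosis induced by 15 ng/mL TNF-α (final) for 20–24 h at 37 °C, after a 30 min room-temperature pretreatment of FADD-deficient Jurkat cells with 0.1, 1 or 10 μM compound. ATP-based luminescence gave viability, from which inhibition rate and cytotoxicity were derived.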

[2] = target: T1, MLKL (Homo sapiens, UniProt Q8NB16); assay: MLKL degradation assay in HepG2 cell line (western blot); assay type: cell-based; design: endogenous in cells; host or cells: HepG2 or HaCaT; settings: cell line not given; for Degradation assay (Degradation %) 1 μM: compound 1 μM; for Degradation assay (Degradation %) 10 μM: compound 10 μM
T1 sequence (Q8NB16 1-471): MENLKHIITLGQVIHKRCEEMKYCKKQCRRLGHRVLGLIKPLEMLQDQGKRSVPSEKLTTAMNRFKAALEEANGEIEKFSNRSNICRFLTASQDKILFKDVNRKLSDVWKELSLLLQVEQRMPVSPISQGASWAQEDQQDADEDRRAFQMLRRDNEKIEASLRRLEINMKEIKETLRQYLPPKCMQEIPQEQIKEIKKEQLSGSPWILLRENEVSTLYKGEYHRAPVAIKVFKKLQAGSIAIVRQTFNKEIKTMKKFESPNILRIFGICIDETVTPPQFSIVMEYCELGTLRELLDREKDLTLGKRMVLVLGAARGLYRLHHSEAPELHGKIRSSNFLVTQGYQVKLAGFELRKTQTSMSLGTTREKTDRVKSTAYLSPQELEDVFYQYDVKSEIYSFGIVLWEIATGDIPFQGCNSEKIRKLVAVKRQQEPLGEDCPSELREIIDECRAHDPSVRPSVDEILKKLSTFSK
Summary of the method: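 Western blot chemiluminescence of MLKL in equal-protein lysates (10-15 μg, BCA-adjusted). Before lysis, HepG2 cells were exposed to 1 or 10 μM (final) test compound for 20-24 h at 37 °C.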

[3] = target: T1, MLKL; assay: Measurement of binding affinity with MLKL receptor (competitive binding assay, Kd); design: made in house; host or cells: HEK 293 cell line (T7 phage in E. coli BL21-derived host is also described)
Summary of the method: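 Competition binding of kinase tagged with DNA for qPCR detection, expressed in HEK 293 cells, against immobilized ligand on beads. Final DMSO 0.9%. Kd derived from kinase amount in eluates measured by qPCR.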

**Q.** For Nc1ncc(-c2cnn(C3CCN(CC4CCN(C(=O)COc5cccc6c5C(=O)N(C5CCC(=O)NC5=O)C6=O)CC4)CC3)c2)nc1C(=O)N[C@@H](C(=O)Nc1ccc(F)cc1)c1ccccc1 (stereo partly drawn) [TDH-186, 3-amino-6-(1-(1-((1-(2-((2-(2,6-dioxopiperidin-3-yl)-1,3-dioxoisoindolin-4-yl)oxy)acetyl)piperidin-4-yl)methyl)piperidin-4-yl)-1H-pyrazol-4-yl)-N-((R)-2-((4-fluorophenyl)amino)-2-oxo-1-phenylethyl)pyrazine-2-carboxamide], which “Necroptosis inhibition assay (Rescue %) 1 μM” value [1] is on record?
**A.** 35.73%

**Q.** What about the “Necroptosis inhibition assay (Rescue %) 10 μM” value [1] of the same compound?
**A.** 35.74%

**Q.** And the “Degradation assay (Degradation %) 1 μM” value [2]?
**A.** 14.8%

**Q.** And the “Degradation assay (Degradation %) 10 μM” value [2]?
**A.** 21.54%

**Q.** What about the Kd [3] of the same compound?
**A.** 75 nM

**Q.** Nc1ncc(-c2cnn(C3CCN(CCOC4CCN(C(=O)COc5cccc6c5C(=O)N(C5CCC(=O)NC5=O)C6=O)CC4)CC3)c2)nc1C(=O)OC(C(=O)Nc1ccc(F)cc1)c1ccccc1 (stereo not shown) [TDH-251, 2-((4-fluorophenyl)amino)-2-oxo-1-phenylethyl 3-amino-6-(1-(1-(2-((1-(2-((2-(2,6-dioxopiperidin-3-yl)-1,3-dioxoisoindolin-4-yl)oxy)acetyl)piperidin-4-yl)oxy)ethyl)piperidin-4-yl)-1H-pyrazol-4-yl)pyrazine-2-carboxylate] was tested. Which “Necroptosis inhibition assay (Rescue %) 1 μM” value [1] did it give?
**A.** 84.44%

**Q.** What about the “Necroptosis inhibition assay (Rescue %) 10 μM” value [1] of the same compound?
**A.** 74.61%

**Q.** What about the “Degradation assay (Degradation %) 1 μM” value [2] of the same compound?
**A.** 72.87%

**Q.** And the “Degradation assay (Degradation %) 10 μM” value [2]?
**A.** 63.25%

**Q.** What about the Kd [3] of the same compound?
**A.** 1.8 nM

**Q.** Which “Necroptosis inhibition assay (Rescue %) 1 μM” value [1] does the source give for Nc1ncc(-c2cnn(C3CCN(CC4CCN(C(=O)C5CCN(c6ccc7nnn(C8CCC(=O)NC8=O)c(=O)c7c6)CC5)CC4)CC3)c2)nc1C(=O)O[C@@H](C(=O)Nc1ccc(F)cc1)c1ccccc1 (stereo partly drawn) [TDH-151, (R)-2-((4-fluorophenyl)amino)-2-oxo-1-phenylethyl 3-amino-6-(1-(1-((1-(1-(3-(2,6-dioxopiperidin-3-yl)-4-oxo-3,4-dihydrobenzo[d][1,2,3]triazin-6-yl)piperidine-4-carbonyl)piperidin-4-yl)methyl)piperidin-4-yl)-1H-pyrazol-4-yl)pyrazine-2-carboxylate] here?
**A.** 85.85%

**Q.** And the “Necroptosis inhibition assay (Rescue %) 10 μM” value [1]?
**A.** 60.12%

**Q.** What about the “Degradation assay (Degradation %) 1 μM” value [2] of the same compound?
**A.** 84.58%

**Q.** And the “Degradation assay (Degradation %) 10 μM” value [2]?
**A.** 77.74%

**Q.** What about the Kd [3] of the same compound?
**A.** 12 nM

**Q.** How did the “Necroptosis inhibition assay (Rescue %) 1 μM” value [1] turn out when Nc1ncc(-c2cnn(C3CCN(C(=O)COC4CCN(C(=O)COc5cccc6c5C(=O)N(C5CCC(=O)NC5=O)C6=O)CC4)CC3)c2)nc1C(=O)O[C@@H](C(=O)Nc1ccc(F)cc1)c1ccccc1 (stereo partly drawn) [TDH-393, (R)-2-((4-fluorophenyl)amino)-2-oxo-1-phenylethyl 3-amino-6-(1-(1-(2-((1-(2-((2-(2,6-dioxopiperidin-3-yl)-1,3-dioxoisoindolin-4-yl)oxy)acetyl)piperidin-4-yl)oxy)acetyl)piperidin-4-yl)-1H-pyrazol-4-yl)pyrazine-2-carboxylate] was run?
**A.** 27.21%

**Q.** What about the “Necroptosis inhibition assay (Rescue %) 10 μM” value [1] of the same compound?
**A.** 38.01%

**Q.** What about the “Degradation assay (Degradation %) 1 μM” value [2] of the same compound?
**A.** 73.39%

**Q.** What about the “Degradation assay (Degradation %) 10 μM” value [2] of the same compound?
**A.** 82.10%

**Q.** What about the Kd [3] of the same compound?
**A.** 0.99 nM

**Q.** Nc1ncc(-c2cnn(C3CCN(C(=O)CCC4CCN(C(=O)CNc5cccc6c5C(=O)N(C5CCC(=O)NC5=O)C6=O)CC4)CC3)c2)nc1C(=O)O[C@@H](C(=O)Nc1ccc(F)cc1)c1ccccc1 (stereo partly drawn) [TDH-421, (R)-2-((4-fluorophenyl)amino)-2-oxo-1-phenylethyl 3-amino-6-(1-(1-(3-(1-((2-(2,6-dioxopiperidin-3-yl)-1,3-dioxoisoindolin-4-yl)glycyl)piperidin-4-yl)propanoyl)piperidin-4-yl)-1H-pyrazol-4-yl)pyrazine-2-carboxylate] was tested. Which “Necroptosis inhibition assay (Rescue %) 1 μM” value ([1]; FADD−/− Jurkat cells) did it give?
**A.** 37.14%

**Q.** What about the “Necroptosis inhibition assay (Rescue %) 10 μM” value ([1]; FADD−/− Jurkat cells) of the same compound?
**A.** 35.74%

**Q.** And the “Degradation assay (Degradation %) 1 μM” value [2]?
**A.** 86.78%

**Q.** And the “Degradation assay (Degradation %) 10 μM” value [2]?
**A.** 86.81%

**Q.** What about the Kd [3] of the same compound?
**A.** 5.3 nM

**Q.** Nc1ncc(-c2cnn([C@@H]3CCN(CCOCCOCCNC(=O)CNc4cccc5c4C(=O)N(C4CCC(=O)NC4=O)C5=O)C3)c2)nc1C(=O)OC(C(=O)Nc1ccc(F)cc1)c1ccccc1 (stereo partly drawn) [TDH-267, 2-((4-fluorophenyl)amino)-2-oxo-1-phenylethyl 3-amino-6-(1-((3R)-1-(2-(2-(2-(2-((2-(2,6-dioxopiperidin-3-yl)-1,3-dioxoisoindolin-4-yl)amino)acetamido)ethoxy)ethoxy)ethyl)pyrrolidin-3-yl)-1H-pyrazol-4-yl)pyrazine-2-carboxylate] was tested. Which “Necroptosis inhibition assay (Rescue %) 1 μM” value [1] did it give?
**A.** 21.58%

**Q.** What about the “Necroptosis inhibition assay (Rescue %) 10 μM” value [1] of the same compound?
**A.** 60.07%

**Q.** What about the “Degradation assay (Degradation %) 10 μM” value [2] of the same compound?
**A.** 37.75%

**Q.** And the Kd [3]?
**A.** 5.7 nM

**Q.** Nc1ncc(-c2cnn(C3CCN(CCc4cn(C5CCN(C(=O)CNc6ccc7c(c6)C(=O)N(C6CCC(=O)NC6=O)C7=O)CC5)nn4)CC3)c2)nc1C(=O)O[C@@H](C(=O)Nc1ccc(F)cc1)c1ccccc1 (stereo partly drawn) [TDH-452, (R)-2-((4-fluorophenyl)amino)-2-oxo-1-phenylethyl 3-amino-6-(1-(1-(2-(1-(1-((2-(2,6-dioxopiperidin-3-yl)-1,3-dioxoisoindolin-5-yl)glycyl)piperidin-4-yl)-1H-1,2,3-triazol-4-yl)ethyl)piperidin-4-yl)-1H-pyrazol-4-yl)pyrazine-2-carboxylate] was tested. Which “Necroptosis inhibition assay (Rescue %) 1 μM” value ([1]; FADD−/− Jurkat cells) did it give?
**A.** 38.27%

**Q.** And the “Necroptosis inhibition assay (Rescue %) 10 μM” value ([1]; FADD−/− Jurkat cells)?
**A.** 26.02%

**Q.** And the “Degradation assay (Degradation %) 1 μM” value [2]?
**A.** 61.94%

**Q.** And the “Degradation assay (Degradation %) 10 μM” value [2]?
**A.** 52.12%

**Q.** What about the Kd [3] of the same compound?
**A.** 1.8 nM

**Q.** How did the “Necroptosis inhibition assay (Rescue %) 1 μM” value ([1]; FADD−/− Jurkat cells) turn out when Nc1ncc(-c2cnn(C3CCN(C(=O)C4CCN(C(=O)C5CCN(c6cccc7nnn(C8CCC(=O)NC8=O)c(=O)c67)CC5)CC4)CC3)c2)nc1C(=O)O[C@@H](C(=O)Nc1ccc(F)cc1)c1ccccc1 (stereo partly drawn) [TDH-414, (R)-2-((4-fluorophenyl)amino)-2-oxo-1-phenylethyl 3-amino-6-(1-(1-(1-(1-(3-(2,6-dioxopiperidin-3-yl)-4-oxo-3,4-dihydrobenzo[d][1,2,3]triazin-5-yl)piperidine-4-carbonyl)piperidine-4-carbonyl)piperidin-4-yl)-1H-pyrazol-4-yl)pyrazine-2-carboxylate] was run?
**A.** 17.52%

**Q.** What about the “Necroptosis inhibition assay (Rescue %) 10 μM” value ([1]; FADD−/− Jurkat cells) of the same compound?
**A.** 13.19%

**Q.** And the “Degradation assay (Degradation %) 1 μM” value [2]?
**A.** 75.28%

**Q.** And the “Degradation assay (Degradation %) 10 μM” value [2]?
**A.** 74.89%

**Q.** And the Kd [3]?
**A.** 0.79 nM

**Q.** With Nc1ncc(-c2cnn(C3CCN(CCCN4CC5CN(C(=O)COc6ccc7c(c6)C(=O)N(C6CCC(=O)NC6=O)C7=O)CC5C4)CC3)c2)nc1C(=O)O[C@@H](C(=O)Nc1ccc(F)cc1)c1ccccc1 (stereo partly drawn) [TDH-466, (R)-2-((4-fluorophenyl)amino)-2-oxo-1-phenylethyl 3-amino-6-(1-(1-(3-(5-(2-((2-(2,6-dioxopiperidin-3-yl)-1,3-dioxoisoindolin-5-yl)oxy)acetyl)hexahydropyrrolo[3,4-c]pyrrol-2(1H)-yl)propyl)piperidin-4-yl)-1H-pyrazol-4-yl)pyrazine-2-carboxylate] as the compound, how does the “Necroptosis inhibition assay (Rescue %) 1 μM” value ([1]; FADD−/− Jurkat cells) read?
**A.** 54.2%

**Q.** And the “Necroptosis inhibition assay (Rescue %) 10 μM” value ([1]; FADD−/− Jurkat cells)?
**A.** 26.69%

**Q.** What about the “Degradation assay (Degradation %) 1 μM” value [2] of the same compound?
**A.** 60.76%

**Q.** And the “Degradation assay (Degradation %) 10 μM” value [2]?
**A.** 86.28%

**Q.** And the Kd [3]?
**A.** 0.41 nM

**Q.** Which “Necroptosis inhibition assay (Rescue %) 1 μM” value [1] does the source give for Nc1ncc(-c2cnn(C3CCN(CCOC4CCN(C(=O)COc5ccc6nnn(C7CCC(=O)NC7=O)c(=O)c6c5)CC4)CC3)c2)nc1C(=O)O[C@@H](C(=O)Nc1ccc(F)cc1)c1ccccc1 (stereo partly drawn) [TDH-373, (R)-2-((4-fluorophenyl)amino)-2-oxo-1-phenylethyl 3-amino-6-(1-(1-(2-((1-(2-((3-(2,6-dioxopiperidin-3-yl)-4-oxo-3,4-dihydrobenzo[d][1,2,3]triazin-6-yl)oxy)acetyl)piperidin-4-yl)oxy)ethyl)piperidin-4-yl)-1H-pyrazol-4-yl)pyrazine-2-carboxylate] here?
**A.** 62.68%

**Q.** What about the “Necroptosis inhibition assay (Rescue %) 10 μM” value [1] of the same compound?
**A.** 40.09%

**Q.** And the “Degradation assay (Degradation %) 1 μM” value [2]?
**A.** 87.78%

**Q.** What about the “Degradation assay (Degradation %) 10 μM” value [2] of the same compound?
**A.** 86.6%

**Q.** What about the Kd [3] of the same compound?
**A.** 1.4 nM
